# Assay results taken from patent publication US8735622B2, “Histone demethylase inhibitors and methods for using the same” (The Regents of the University of Colorado, a body corporate, priority 2011, dated 2014).
# Values joined by “and” are separate entries in the source; they are usually repeats but may differ in a detail not shown here. Identical values can stand only once.
# Experiments:
# LSD1 = biological target: T1, LSD1 (Homo sapiens, UniProt O60341); assay: LSD1 formaldehyde dehydrogenase coupled assay; format: biochemical; conditions: in vitro
# T1 construct: LSD1 (full-length) was expressed as glutathione S-transferase (GST) fusions; made in house; host or cells: Escherichia coli BL-21
# Method: LSD1 activity was measured in a formaldehyde dehydrogenase coupled assay. 15 μL enzyme mix containing 2.4 μg GST-LSD1 in 20 mM TRIS pH 8.5, 1 mM NAD, 1.5 mU formaldehyde dehydrogenase, 0.5 mM glutathione was added, followed by pin transfer of 100 nL compound. Then reactions were started by addition of 15 μL 75 μM H3(1-20)K4me2 peptide, and NADH fluorescence was measured on a Envision Microplate Imager (Perkin Elmer Life Sciences) with excitation at 345 nm and emission at 460 nm, integration for 400 ms at 10 min and 80 min after peptide addition.
# KYSE150 cells = assay: Cell viability / growth inhibition assay (CellTiter-Glo); format: cell-based, human; conditions: 48 hours; compound 1 at up to 100 μM
# Source text: To examine the cellular activity of the compounds of the invention, oesophageal carcinoma cell line KYSE150 was used in a growth inhibition assay because KYSE150 cells have been reported to contain several copies of the GASC1 gene, and it has been reported that inhibition of GASC1 expression using short hairpin RNA causes a significant reduction of proliferation in KYSE150 cells. […] Without being bound by any theory, it is believed that this low activity in cells was possibly due to the poor cellular uptake of the zwitterion form in which it typically exists under physiological conditions. Therefore, its methyl ester prodrug 2 (FIG. 1a), called methylstat was tested.
# To screen and validate the cellular toxicity of compounds, a cell viability assay was carried out using CellTiter-Glo luminescent cell viability assay kit (Promega, Madison USA). KYSE150 cells were seeded on blank-walled 384-well plates with KYSE medium at densities of 1,000 cells/well. The medium volume for each well was 40 μL. Cells were incubated at 37° C. in 5% CO2/95% air for 24 hours. The medium was removed from each well and replaced with 38 μL, of warmed fresh medium and 2 μL, compound solution in 2% DMSO/98% H2O. The compounds were added into medium at different concentrations with the final concentration of DMSO as 0.1%. After incubation at 37° C. with 5% CO2/95% air for another 48 hours, the plates were equilibrated to room temperature for 30 minutes. 40 μL, of CellTiter-Glo reagent (Promega, Madison USA) was added to each well and mixed for 2 minutes on an orbital shaker. The plate was incubated at room temperature for another 10 minutes to stabilize luminescent signal. The luminescence of each sample was measured in a plate-reading illuminometer (Beckman Coulter DTX 880) with parameters of 1-minute lag time and 0.1 second/well read time. The experiments were performed in triplicate and repeated on two separately initiated cultures.
# HDACs = assay: Histone deacetylases (HDACs) enzyme inhibition assay (Fluor de Lys); format: biochemical; conditions: in vitro
# Method: The enzyme activity assay for HDAC was carried out using Fluor de Lys Fluorescent Assay System (BML-AK500, Enzo Life Sciences Inc, NY USA). The assay was performed as the manufactory guide in white 384-well plates. Time resolved fluorescence was measured on a Beckman Coulter DTX 880 plate reader with 250 ms delay, excitation at 360 nm, and emission at 530 nm.
# [1] = biological target: T2, human GASC1 (GST-GASC1(1-420)) (Homo sapiens, UniProt Q9H3R0); assay: GASC1 enzyme activity assay (DELFIA); format: biochemical; conditions: DELFIA, H3K9me3 peptide substrate
# T2 construct: corresponding to amino acid 1-420 was cloned and purified; made in house; host or cells: Escherichia coli BL-21
# T2 sequence (Q9H3R0 1-420): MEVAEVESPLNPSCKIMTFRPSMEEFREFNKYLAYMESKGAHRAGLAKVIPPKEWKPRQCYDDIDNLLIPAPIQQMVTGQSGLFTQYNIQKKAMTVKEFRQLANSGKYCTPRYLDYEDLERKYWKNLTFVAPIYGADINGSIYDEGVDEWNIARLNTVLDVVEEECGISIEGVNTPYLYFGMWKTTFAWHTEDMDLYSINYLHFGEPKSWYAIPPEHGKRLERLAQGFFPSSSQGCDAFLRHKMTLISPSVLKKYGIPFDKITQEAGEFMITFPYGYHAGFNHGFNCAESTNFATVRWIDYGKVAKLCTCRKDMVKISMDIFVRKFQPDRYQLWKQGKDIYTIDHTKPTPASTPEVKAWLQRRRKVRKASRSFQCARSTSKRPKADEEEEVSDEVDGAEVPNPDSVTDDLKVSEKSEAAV
# Method: (§1) In order to evaluate the inhibitory activity of 1 in vitro, a GST-fusion protein of the catalytic N-terminus of human GASC1 (gene amplified in squamous cell carcinoma 1) corresponding to amino acid 1-420 was cloned and purified. […] To evaluate the enzyme specificity of 1, the activity of 1 was examined against several other related enzymes in vitro.
# (§2) The enzyme activity assays for GASC1 and JMJD2A were established on the DELFIA platform. DELFIA assays were performed in white, opaque 384-well plates coated with Streptavidin (Perkin Elmer). GST-GASC1(1-420) was diluted to 200 ng/well in 20 mM Tris HCl pH 8.5/2 mM glutathione and added in a volume of 20 μL. Blank wells received Tris/glutathione buffer only. Test compounds were diluted in DMSO and […] was pinned into the wells. Blank and control wells received only compound buffer. The reactions were initiated by the addition of 500 nM biotin-H3(1-20)K9me3 substrate, 10 μM FeSO4, 100 μM alpha-ketoglutarate in a volume of 20 μL, and incubated at room temperature for 60 minutes. The plates were washed 3 times with 100 μL of Wash Buffer (50 mM Tris pH 7.4, 150 mM NaCl, 0.05% Tween 20, 0.2% BSA). […] Time resolved fluorescence was measured after 45 minutes on an Envision Microplate Imager (Perkin Elmer Life Sciences) with 400 μs delay, excitation at 360 nm, and emission at 620 nm.
# JMJD2A = biological target: T3, JMJD2A (Homo sapiens, UniProt O75164); assay: JMJD2A enzyme activity assay (DELFIA); format: biochemical; conditions: DELFIA
# T3 construct: Recombinant protein preparation of GASC1(1-420), JMJD2A (1-420) and LSD1 (full-length); made in house; host or cells: Escherichia coli BL-21
# T3 sequence (O75164 1-420): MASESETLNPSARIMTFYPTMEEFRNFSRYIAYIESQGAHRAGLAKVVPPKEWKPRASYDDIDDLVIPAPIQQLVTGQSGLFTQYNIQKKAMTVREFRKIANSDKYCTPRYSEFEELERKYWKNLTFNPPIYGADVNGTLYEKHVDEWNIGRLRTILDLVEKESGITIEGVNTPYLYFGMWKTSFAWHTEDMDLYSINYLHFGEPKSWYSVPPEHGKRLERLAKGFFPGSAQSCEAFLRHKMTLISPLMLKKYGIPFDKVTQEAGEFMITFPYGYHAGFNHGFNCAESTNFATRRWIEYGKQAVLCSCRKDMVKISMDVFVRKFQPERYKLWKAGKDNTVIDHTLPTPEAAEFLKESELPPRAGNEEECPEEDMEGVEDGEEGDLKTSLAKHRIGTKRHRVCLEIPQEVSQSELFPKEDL
# Method: as §1, §2
# GST-fused GASC1(1-420) = biological target: T4, GST-fused GASC1(1-420) (Homo sapiens, UniProt Q9H3R0); assay: GASC1 enzyme inhibition assay with MS detection; format: biochemical; conditions: 1 μM and 5 μM, 2 hours
# T4 construct: corresponding to amino acid 1-420 was cloned and purified; made in house; host or cells: Escherichia coli BL-21
# T4 sequence (Q9H3R0 1-420): T2 sequence (Q9H3R0 1-420)
# Method: Synthetic histone peptides H3K9me3 were incubated with purified GST-tagged GASC1(1-420) in demethylation buffer (50 mM Tris pH 8.0, 2 mM ZnCl2, 1 mM alpha-ketoglutarate, 50 μM FeSO4, 1 mM ascorbic acid) at 37° C. In a typical reaction, 2 μg of modified histone peptides were incubated with 20 μg GST-GASC1(1-420) in a total volume of 40 μL, for 2 hours. Reaction mixtures were concentrated and re-dissolved in 50% methanol in water with 0.1% formic acid followed by ESI-TOF analysis using ABI Q-Star Pulsar.
smiles,measurement,setting,value
O=C(O)/C=C/C(=O)N(O)CCCCNCc1ccc(COC(=O)Nc2cccc3ccccc23)cc1 [Compound 1],inhibition of FAD-dependent HDM LSD1,LSD1,did not significantly inhibit
same,KYSE150 cell growth inhibition,KYSE150 cells,did not show significant growth inhibition
same,inhibition of histone deacetylases (HDACs),HDACs,did not significantly inhibit
same,IC50,[1],~4.3 µM and 4.3 µM
same,IC50,JMJD2A,~3.4 µM and 3.4 µM
same,inhibition of GASC1-mediated demethylation of H3K9me3 peptide (mass spectrum),GST-fused GASC1(1-420),inhibited GASC1-mediated demethylation of H3K9me3 peptides
